For assay [1], the system named is Capan-1. Briefly: In vitro cytotoxicity, Capan-1.
Source text: (§4) Cell lines, antibodies, and chemotherapeutics—All human cancer cell lines used in this study were purchased from the American Type Culture Collection.
In assay [2] the test system is MDA-MB-468. Briefly: Cytotoxicity (MTS), Example 7, MDA-MB-468. The assay is classed as cell-based, human. The note with it: MDA-MB-468, 96 h. The method, then:
(§1) One day prior to adding the ADC, cells were harvested from tissue culture and plated into 96-well plates at 2000 cells per well. […] Plates were incubated at 37° C. for 96 h. […] Growth inhibition was measured as a percent of growth relative to untreated cells using Microsoft Excel and Prism software (non-linear regression to generate sigmoidal dose response curves which yield IC50-values).

In assay [3] the test system is p21^Waf1/Cip1 and p53. Kind of assay: Signaling events (p21Waf1/Cip1, p53) in BxPC-3. The format is cell-based, human.
Source text: (§5) Our initial studies examined the expression of 2 proteins involved in early signaling events (p21^Waf1/Cip1 and p53) and 1 late apoptotic event [cleavage of poly-ADP-ribose polymerase (PARP)] in vitro (not shown).
Assay [4] concerns BxPC-3. Briefly: Cytotoxicity (MTS), Example 7, BxPC-3. The format is cell-based, human. The note with it: BxPC-3, 96 h. Here is the method: as §1
The subject of the next assay is HCC1806. Briefly: SN-38 sensitivity (MTS), HCC1806. The format is cell-based, human. The note with it: HCC1806 (TNBC), 96 h. The method, then:
(§2) In vitro cytotoxicity testing—Sensitivity to SN-38 was determined using the 3-(4,5-dimethylthiazol-2-yl)-5-(3-carboxymethoxyphenyl)-2-(4-sulfophenyl)-2H-tetrazolium dye reduction assay (MTS dye reduction assay; Promega, Madison, WI). Briefly, cells were plated into 96-well clear, flat-bottomed plates as described above. SN-38 dissolved in DMSO was diluted with media to a final concentration of 0.004 to 250 nM. […] Growth inhibition was measured as a percent of growth relative to untreated cells. Dose-response curves were generated from the mean of triplicate determinations, and IC50-values were calculated using Prism GraphPad Software.

In the next assay the test system is p21^WAF1/Cip1. Kind of assay: Immunoblotting, apoptotic pathway, MDA-MB-468. The note with it: MDA-MB-468, by 48 h. The assay is classed as cell-based, human. Here is the method: Immunoblotting—Cells (2×10^6) were plated in 6-well plates overnight. […] Parental hRS7 was used as a control for the ADC.
On the technique in general: A western blot detects proteins with antibodies after separation by electrophoresis.

Assay [5] has as its system p21^Waf1/Cip1 and p53. Kind of assay: Signaling events (p21Waf1/Cip1, p53) in Calu-3. The assay is classed as cell-based, human.
Source text: as §5
A further assay relates to NCI-N87. Briefly: Cytotoxicity (MTS), Example 6, NCI-N87. The assay is classed as cell-based, human. To be noted: NCI-N87, 96 h. The method, then:
(§3) One day prior to adding the ADCs, cells were harvested from tissue culture and plated into 96-well plates. […] Plates were incubated at 37° C. for 96 h. […] Growth inhibition was measured as a percent of growth relative to untreated cells using Microsoft Excel and Prism software (non-linear regression to generate sigmoidal dose response curves which yield IC50-values.

For a further assay, the system named is PC-3. Kind of assay: In vitro cytotoxicity, PC-3.
Assay [6] deals with Capan-1. Kind of assay: Cytotoxicity (MTS), Example 6, Capan-1. The format is cell-based, human. The note with it: Capan-1, 96 h. Here is the method: as §3
The subject of the next assay is HCC38. Kind of assay: SN-38 sensitivity (MTS), HCC38. The assay is classed as cell-based, human. To be noted: HCC38 (TNBC), 96 h. The method, then:
as §2

Another assay has as its system SK-BR-3. Briefly: SN-38 sensitivity (MTS), SK-BR-3. The note with it: SK-BR-3 (HER2+), 96 h. The format is cell-based, human. The method, then:
as §2

For the next assay, the system named is MCF-7. Briefly: SN-38 sensitivity (MTS), MCF-7. The format is cell-based, human. The note with it: MCF-7 (ER+), 96 h. Here is the method:
as §2

Another assay relates to Calu-3. Briefly: In vitro cytotoxicity, Calu-3.
Another assay relates to SK-MES-1. Kind of assay: In vitro cytotoxicity, SK-MES-1.
The test system of assay [7] is BxPC-3. Briefly: In vitro cytotoxicity, BxPC-3.
Source text: as §4
A further assay deals with MDA-MB-231. Briefly: SN-38 sensitivity (MTS), MDA-MB-231. The assay is classed as cell-based, human. The note with it: MDA-MB-231 (TNBC), 96 h. Here is the method: as §2
The test system of another assay is PARP. Kind of assay: Immunoblotting, apoptosis signaling, NCI-N87 and BxPC-3. The format is cell-based, human. The note with it: evident at 24 h, increased at 48 h. Here is the method: Immunoblotting—Cells (2×10^6) were plated in 6-well plates overnight. […] Parental hRS7 was used as a control for the ADC. Cells were lysed in buffer containing 10 mM Tris, pH 7.4, 150 mM NaCl, protease inhibitors and phosphatase inhibitors (2 mM […], 10 mM NaF). A total of 20 μg protein was resolved in a 4-20% SDS polyacrylamide gel, transferred onto a nitrocellulose membrane and blocked by 5% non-fat milk in 1×TBS-T (Tris-buffered saline, 0.1% Tween-20) for 1 h at room temperature. Membranes were probed overnight at 4° C. with primary antibodies followed by 1-h incubation with antirabbit secondary antibody (1:2500) at room temperature. Signal detection was done using a chemiluminescence kit (Supersignal West Dura, Thermo Scientific; Rockford, IL) with the membranes visualized on a Kodak Image Station […]. Primary antibodies p21Waf1/Cip1 (Cat. No. 2947), Caspase-3 (Cat. No. 9665), Caspase-7 (Cat. No. 9492), Caspase-9 (Cat. No. 9502), PARP (Cat. No. 9542), 3-actin (Cat. No. 4967), pJNK1/2 (Cat. No. 4668), JNK (Cat. No. 9258), and goat anti-rabbit-HRP secondary antibody (Cat. No. 7074) were obtained from Cell Signal Technology (Danvers, MA).

The next assay concerns COLO 205. Kind of assay: In vitro cytotoxicity, COLO 205.
Assay [8] has as its system MDA-MB-468. Kind of assay: SN-38 sensitivity (MTS), MDA-MB-468. The assay is classed as cell-based, human. To be noted: MDA-MB-468 (TNBC), 96 h. The method, then: as §2
Assay [9] has as its system BxPC-3. Kind of assay: Cytotoxicity (MTS), Example 6, BxPC-3. The assay is classed as cell-based, human. The note with it: BxPC-3, 96 h. Here is the method: as §3

Usually IC50 stands for the point on the concentration scale where inhibition reaches its midpoint.

The structures appear in SMILES notation.

Source text for COLO 205: as §4
Source text for SK-MES-1: as §4

As for `CCc1c2c(nc3ccc(O)cc13)-c1cc3c(c(=O)n1C2)COC(=O)[C@]3(O)CC` [SN-38, 7-ethyl-10-hydroxycamptothecin], the IC50 in the assay on Capan-1 [1] came out at 3.5 nM; with MDA-MB-468 [2] it was 0.8 nM; in the assay with BxPC-3 [4] it was 1.6 nM; in the assay on HCC1806, 1 nM; in the assay on NCI-N87, 4.3 nM; in the assay on PC-3, 1.86 nM. For the same compound, the IC50 in the assay with Capan-1 [6] was 1 nM; with HCC38 it was 2 nM; in the assay on SK-BR-3, 2 nM; with MCF-7 it was 33 nM; in the assay on Calu-3 it was 7.19 nM; with SK-MES-1 it was 8.61 nM. Further, the IC50 turned out to be 1.44 nM in the assay on BxPC-3 [7]; 6 nM in the assay with MDA-MB-231; 1.02 nM with COLO 205; 2 nM in the assay with MDA-MB-468 [8]; 1 nM with BxPC-3 [9]. The “exposure time at which p53 upregulation is evident” value with p21^Waf1/Cip1 and p53 [3] was determined as 48 h; in the assay with p21^Waf1/Cip1 and p53 [5], 48 h. Further, the “increase in p21Waf1/Cip1 expression” value in the assay with p21^Waf1/Cip1 and p53 [3] was 20 fold. The “decrease of p21WAF1/Cip1” value with p21^WAF1/Cip1 is on record as 31%. Besides, the PARP cleavage result in the assay with PARP is given as “mediated PARP cleavage”.

Source of the values: patent US20240352145A1, “EFFICACY OF ANTI-TROP-2-SN-38 ANTIBODY DRUG CONJUGATES FOR THERAPY OF TUMORS RELAPSED/REFRACTORY TO CHECKPOINT INHIBITORS” (Immunomedics, Inc., priority 2016, published 2024).
